# From ChEMBL document CHEMBL1909294, “Translating clinical findings into knowledge in drug safety evaluation--drug induced liver injury prediction system (DILIps)” (PLoS Comput Biol, 2011)
# Where a SMILES comes first, the peptide text is derived from it. Bridges are numbered along the chain shown (N, C = ends). [ ]: non-standard residue; d: D form. The star is where a group is joined. Threoninol(2S,3R) = C[C@@H](O)[C@H](CO)N*
# Legend:
# Hepatotoxicity [1] = system: Hepatotoxicity;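 for HepSE Combined Scores: combined hepatic side effect score as listed in the training data of the Drug Induced Liver Injury Prediction System (DILIps)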;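 for HepSE bilirubinemia: bilirubinemia hepatic side effect score drawn from the DILIps training data, a prediction system for drug-induced liver injury; call rule not given here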;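 for HepSE cholecystitis: Cholecystitis-related hepatic side effect score drawn from the DILIps (drug-induced liver injury prediction) training data set; call rule not given here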;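 for HepSE cholelithiasis: hepatic side effect score for cholelithiasis, drawn from the DILIps training data for predicting drug-induced liver injury; call rule not given here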;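 for HepSE elevated liver function tests: hepatic side effect score for raised liver function tests, as recorded in the DILIps training set used for predicting drug-induced liver injury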;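 for HepSE hepatomegaly: hepatic side effect score for hepatomegaly, taken from the training set of the DILIps drug-induced liver injury prediction system; call rule not given here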
# Hepatotoxicity [2] = system: Hepatotoxicity; remark: listed apart in the source;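 for HepSE Combined Scores: combined hepatic side effect score as listed in the training data of the Drug Induced Liver Injury Prediction System (DILIps)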;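 for HepSE bilirubinemia: bilirubinemia hepatic side effect score drawn from the DILIps training data, a prediction system for drug-induced liver injury; call rule not given here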;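 for HepSE cholecystitis: Cholecystitis-related hepatic side effect score drawn from the DILIps (drug-induced liver injury prediction) training data set; call rule not given here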;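 for HepSE cholelithiasis: hepatic side effect score for cholelithiasis, drawn from the DILIps training data for predicting drug-induced liver injury; call rule not given here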;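 for HepSE elevated liver function tests: hepatic side effect score for raised liver function tests, as recorded in the DILIps training set used for predicting drug-induced liver injury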;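 for HepSE hepatomegaly: hepatic side effect score for hepatomegaly, taken from the training set of the DILIps drug-induced liver injury prediction system; call rule not given here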
# Hepatotoxicity [3] = system: Hepatotoxicity; remark: listed apart in the source;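 for HepSE Combined Scores: combined hepatic side effect score as listed in the training data of the Drug Induced Liver Injury Prediction System (DILIps)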;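 for HepSE bilirubinemia: bilirubinemia hepatic side effect score drawn from the DILIps training data, a prediction system for drug-induced liver injury; call rule not given here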;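 for HepSE cholecystitis: Cholecystitis-related hepatic side effect score drawn from the DILIps (drug-induced liver injury prediction) training data set; call rule not given here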;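 for HepSE cholelithiasis: hepatic side effect score for cholelithiasis, drawn from the DILIps training data for predicting drug-induced liver injury; call rule not given here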;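 for HepSE elevated liver function tests: hepatic side effect score for raised liver function tests, as recorded in the DILIps training set used for predicting drug-induced liver injury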;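 for HepSE hepatomegaly: hepatic side effect score for hepatomegaly, taken from the training set of the DILIps drug-induced liver injury prediction system; call rule not given here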
# Hepatotoxicity [4] = system: Hepatotoxicity; remark: listed apart in the source;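 for HepSE Combined Scores: combined hepatic side effect score as listed in the training data of the Drug Induced Liver Injury Prediction System (DILIps)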;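 for HepSE bilirubinemia: bilirubinemia hepatic side effect score drawn from the DILIps training data, a prediction system for drug-induced liver injury; call rule not given here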;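 for HepSE cholecystitis: Cholecystitis-related hepatic side effect score drawn from the DILIps (drug-induced liver injury prediction) training data set; call rule not given here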;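 for HepSE cholelithiasis: hepatic side effect score for cholelithiasis, drawn from the DILIps training data for predicting drug-induced liver injury; call rule not given here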;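 for HepSE elevated liver function tests: hepatic side effect score for raised liver function tests, as recorded in the DILIps training set used for predicting drug-induced liver injury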
# Hepatotoxicity [5] = system: Hepatotoxicity; remark: listed apart in the source
# Hepatotoxicity [6] = system: Hepatotoxicity; remark: listed apart in the source
# Hepatotoxicity [7] = system: Hepatotoxicity; remark: listed apart in the source
# Hepatotoxicity [8] = system: Hepatotoxicity; remark: listed apart in the source
# Hepatotoxicity [9] = system: Hepatotoxicity; remark: listed apart in the source
# Hepatotoxicity [10] = system: Hepatotoxicity; remark: listed apart in the source
# Hepatotoxicity [11] = system: Hepatotoxicity; remark: listed apart in the source
# Hepatotoxicity [12] = system: Hepatotoxicity; remark: listed apart in the source
# Hepatotoxicity [13] = system: Hepatotoxicity; remark: listed apart in the source
# Hepatotoxicity [14] = system: Hepatotoxicity; remark: listed apart in the source
Compound,HepSE_cholecystitis (Hepatotoxicity [1]),HepSE_bilirubinemia (Hepatotoxicity [2]),HepSE_elevated liver function tests (Hepatotoxicity [3]),HepSE_cholelithiasis (Hepatotoxicity [4]),HepSE_Combined Scores (Hepatotoxicity [5]),HepSE_hepatomegaly (Hepatotoxicity [6]),HepSE_hepatic necrosis (Hepatotoxicity [7]),HepSE_liver fatty (Hepatotoxicity [8]),HepSE_cirrhosis (Hepatotoxicity [9]),HepSE_jaundice (Hepatotoxicity [10]),HepSE_liver function tests abnormal (Hepatotoxicity [11]),HepSE_hepatitis (Hepatotoxicity [12]),HepSE_liver disease (Hepatotoxicity [13]),HepSE_hepatic failure (Hepatotoxicity [14]),other results
COC(c1ccccc1)(c1ccccc1)[C@H](Oc1nc(C)cc(C)n1)C(=O)O [AMBRISENTAN],0,0,0,0,0,0,0,0,0,0,0,0,0,0,–
CCN(CC)C(=O)/C(C#N)=C/c1cc(O)c(O)c([N+](=O)[O-])c1 [ENTACAPONE],1,1,0,1,5,0,0,0,0,0,0,1,0,1,–
CC(C)(S)[C@@H](N)C(=O)O [PENICILLAMINE],0,0,0,0,1,0,0,0,0,0,0,0,0,1,–
OXALIPLATIN,0,1,0,0,2,0,0,0,0,0,0,0,1,0,–
OC[C@H]1O[C@@H](O[C@@H]2[C@@H](CO)O[C@](O)(CO)[C@H]2O)[C@H](O)[C@@H](O)[C@H]1O [LACTULOSE],0,0,0,0,0,0,0,0,0,0,0,0,0,0,–
CC1(C)NC(=O)N(c2ccc([N+](=O)[O-])c(C(F)(F)F)c2)C1=O [NILUTAMIDE],–,–,–,–,–,–,–,–,–,–,–,–,–,–,HepSE_cholecystitis (Hepatotoxicity [1]; Liver): 0; HepSE_bilirubinemia (Hepatotoxicity [2]; Liver): 0; HepSE_elevated liver function tests (Hepatotoxicity [3]; Liver): 0; HepSE_cholelithiasis (Hepatotoxicity [4]; Liver): 0; HepSE_Combined Scores (Hepatotoxicity [5]; Liver): 1; HepSE_hepatomegaly (Hepatotoxicity [6]; Liver): 0; HepSE_hepatic necrosis (Hepatotoxicity [7]; Liver): 0; HepSE_liver fatty (Hepatotoxicity [8]; Liver): 0; HepSE_cirrhosis (Hepatotoxicity [9]; Liver): 0; HepSE_jaundice (Hepatotoxicity [10]; Liver): 0; HepSE_liver function tests abnormal (Hepatotoxicity [11]; Liver): 0; HepSE_hepatitis (Hepatotoxicity [12]; Liver): 1; HepSE_liver disease (Hepatotoxicity [13]; Liver): 0; HepSE_hepatic failure (Hepatotoxicity [14]; Liver): 0
CCCCC[C@H](O)/C=C/[C@H]1[C@H](O)CC(=O)[C@@H]1CCCCCCC(=O)O [ALPROSTADIL],0,1,0,0,1,0,0,0,0,0,0,0,0,0,–
CCOc1nc2cccc(C(=O)O)c2n1Cc1ccc(-c2ccccc2-c2nnn[nH]2)cc1,0,0,0,1,2,0,0,0,0,0,0,1,0,0,–
OC[C@@H](O)[C@@H](O)[C@H](O)[C@H](O)CO [MANNITOL],0,0,0,0,0,0,0,0,0,0,0,0,0,0,–
CCCc1nn(C)c2c(=O)[nH]c(-c3cc(S(=O)(=O)N4CCN(C)CC4)ccc3OCC)nc12,0,0,0,0,1,0,0,0,0,0,1,0,0,0,–
COCCCC/C(=N\OCCN)c1ccc(C(F)(F)F)cc1 [FLUVOXAMINE],1,0,0,1,5,0,0,0,0,1,1,1,0,0,–
"C[C@@H](O)[C@H](CO)NC(=O)[C@@H]1CSSC[C@H](NC(=O)[C@H](N)Cc2ccccc2)C(=O)N[C@@H](Cc2ccccc2)C(=O)N[C@H](Cc2c[nH]c3ccccc23)C(=O)N[C@@H](CCCCN)C(=O)N[C@@H]([C@@H](C)O)C(=O)N1 (H-[dF]CF[dW]KTC-{Threoninol(2S,3R)}; disulfide 2-7)",1,1,0,1,6,0,0,1,0,1,0,1,0,0,–
CCC(C)n1ncn(-c2ccc(N3CCN(c4ccc(OCC5COC(Cn6cncn6)(c6ccc(Cl)cc6Cl)O5)cc4)CC3)cc2)c1=O (configuration not stated) [ITRACONAZOLE],0,1,0,0,7,0,0,0,1,1,1,1,1,1,–
